Measurements reported in article PMC9085743, “Identification of oleoylethanolamide as an endogenous ligand for HIF-3α” (Nature Communications, 2022).

Target: T1, HIF-3α (Mus musculus, UniProt Q0VBL6)
T1 construct: gene Hif3a; SPR: MBP-HIF-3α-PAS-B (residues 235-363); crystal: HIF-3α residues 4-358 with ARNT residues 82–464; with ARNT (in the crystal, thermal shift, AS-MS, TR-FRET and HDX-MS; not in SPR)
Experiment: co-crystal structure ([…] Å), SPR, thermal shift, AS-MS, HDX-MS
Format: binding

T1 sequence (Q0VBL6 235-363): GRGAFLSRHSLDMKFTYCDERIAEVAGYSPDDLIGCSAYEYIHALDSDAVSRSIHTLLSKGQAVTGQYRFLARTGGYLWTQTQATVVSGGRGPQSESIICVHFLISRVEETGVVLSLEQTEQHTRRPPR

Kd: ~14 µM
Compound: CCCCCCCC/C=C\CCCCCCCC(=O)NCCO [OEA, oleoylethanolamide]
